In brackets after ≈: the same amount, converted by molar mass. Numbered stars: 1 amine (or outer) side, 2 acyl side, 3 side chain; on linkers, the order of the positions; unused ones are H or OH. Bridge positions count the residues as written; N and C are the ends. Square brackets hold non-standard residues; d marks the D form. Peptide text beside a SMILES is read from it. I, II: the chains in the order shown. Actinocin(9to1) = Cc1c2oc3c(C)ccc(C(=O)[*:1])c3nc-2c(C(=O)[*:2])c(N)c1=O; NMeV = CN[C@H](C(=O)O)C(C)C; Sar = CNCC(=O)O
Key:
[1] = tested on: human lymphoblastic leukemia cells (CCRF-CEM); assay: In vitro growth inhibition of CCRF-CEM cells; assay type: cell-based; details: for In Vitro (CCRF-CEM) ID50: cells in log-phase growth, suspension culture, final growth medium 5% Me2SO
Experimental: ^b Human lymphoblastic luekemia cells in logphase growth and in a
suspension culture. Compounds were dissolved in Me2 SO medium, final
growth medium contained 5% Me2 SO.
In vitro growth inhibition of the analogues were assayed against human lymphoblastic leukemia cells (CCRF-CEM) in log phase. The most cyctoxic are AMD-OZN analogues 2b and 2g and AMD-OZL analogues 4a-4c. However, compared to AMD, they are several fold less cytotoxic to CEM-cells in vitro.

[2] = tested on: P388 lymphocytic leukemia; assay: In vivo P388 assay; parameters: species or system mice; details: ip days 1,5,9; for % ILS (percent increase in life span) / MST (median survival time) / Cure (over 60 day survivors): at optimum dose; for % ILS (percent increase in life span) / MST (median survival time): CDF1 male mice; for MST (median survival time): control MST 11.0 days; for Cure (over 60 day survivors): group of 7 CDF1 male mice, average of 2 experiments
Experimental: ^c 10^6 P388 cells implanted intraperitoneally on day 0 into a
group of 7 CDF1 male mice. Drugs were administered, also ip, in 10%
Me2 SO--saline on days 1,5,9. Test solutions were kept at 0-4.degree
C., protected from light.
These analogues were tested for antitumor activity against P388 lymphocytic leukemia in male CDF1 hybrid mice (Table 6). The tumor was implanted intraperitoneally (ip) with 10^6 cells. The drugs were administered once daily on days 1, 5, 9 beginning 1 day after implantation.

purified calfthymus DNA = assay: Thermal denaturation of DNA (ΔTm); assay type: binding, calf; details: 0.01 M phosphate, EDTA, buffer pH 7.0
Experimental: ^a ΔTm = Tm of DNAdrug complex minut Tm of
purified calfthymus DNA.
(§1) Medium: 0.01 M phosphate containing 10^-4 EDTA, buffer pH 7.0.
Melting points were determined on a Thomas-Hoover melting point apparatus at a heating rate of 2° C./min. Dry column chromatography was accomplished with silicic acid powder (Bio-Sil A 100-200 mesh, Bio-Rad Laboratories, Inc.) or acid alumina (Woelm grade 1). Thin layer chromatography was performed on silica gel plates (Brinkmann Instrument, Inc.). For oxazinone analogues (2b), the silica gel plates were exposed to the vapor of conc. HCL in an air-tight container for 20 min before application of the compound for TLC. This procedure helped to prevent the streaking of the compounds in the chromatogram. Solvent systems were (A) EtOAc-acetone (2:1); (B) dry t-BuOH-C6 H6 --C6 H5 N (85:12.5:2.5); (C) Cifferri, the organic phase of the mixture EtOAc-MeOH-H2 O (20:L:20). High performance-liquid chromatography was carried out on a Varian Model 5020 gradient liquid chromatograph equipped with CD-111L chromatography data system and fitted with Varian reversed-phase C18 column with isocratic solvent systems, CH3 CN-5 mM NH4 OAc buffer, pH 6.4 (68:32), flow rate 15 mL/mn, with UV-visible variable and fixed wavelength dual detectors at 254,440, 500 and 252 nm. Spectra were determined on the following instruments: IR spectra were obtained on the Perkin-Elmer Model 237 Infra Cord with KBr micropellets or in CHCl3 solutions; UV-visible spectra were obtained on a Gilford 250 spectrophotometer, which, with the addition of a baseline reference compensator (Analog Multiplexer 5053) and thermoprogrammer, auto four cell programmer and thermoelectric cell holder 2577, were used to obtain thermal denaturation curves; specific rotational values were determined in CHCl3 solutions using a Cary 60 spectropolarimeter; NMR spectra were obtained in a JOEL FQ -90 MHz spectrometer equipped with Fourier transform. All elemental analyses were within +0.4%, unless it is specified otherwise.
DNA-DRUG BINDING BY DIFFERENCE SPECTRAL AND THERMAL DEVATURATION OF DNA (ΔTm) TECHNIQUES […]

DNA = assay: DNA-drug binding by difference spectral (absorption and CD) techniques; details: for Diff. CD Spectra -Δ[θ]max (nm): DNA-bound vs combined individual spectra; for Diff. CD Spectra -Δ[θ]max (nm) / Diff. Absorption Spectra -Δεmax (nm): 340-600 nm, wavelength in brackets, phosphate buffer pH 7.0; for Diff. Absorption Spectra -Δεmax (nm): free minus DNA-bound spectrum
From the text: ^b Diff. Absorption Spectra is the calculated absorption spectra
obtained by subtracting the spectrum of the DNAbound analogue from the
spectrum of the free analogue, measured at 340-600 nm.
^c Diff. CD Spectra is the calculated CD Spectra obtained as the
difference of the DNAbound from the combined individual spectra of
analogues and DNA at 340-600 nm.
as §1
DNA-DRUG BINDING BY DIFFERENCE SPECTRAL AND THERMAL DEVATURATION OF DNA (ΔTm) TECHNIQUES
These experiments were performed according to the methods described by Sengupta et al., Cancer Chemother. Rep., 1974, 58, p. 35, Sengupta et al, J. Med. Chem., 1981, 24, p. 1052 and Sengupta et al, 1983, 26, p. 448, Sengupta et al, 1978, Biochem. Biophys Acta, 521, p. 89.

[3] = Solubility in distilled water
Experimental: SOLUBILITY OF ACTINOMYCIN D AND ANALOGUES 2b, 3b AND 4b IN DISTILLED WATER AT 20° C. AND 4° C.

mouse leukemia cells = details: known before this invention; cited from earlier work

Structure (SMILES) | In Vitro (CCRF-CEM) ID50 [1] [µg/mL] | % ILS (percent increase in life span) [2] [%] | MST (median survival time) [2] [days] | Cure (over 60 day survivors) [2] | ΔTm (Tm of DNA-drug complex minus Tm of DNA) (purified calfthymus DNA) [°C] | Diff. CD Spectra -Δ[θ]max (nm) (DNA) | DNA binding (in words) (DNA; difference spectral or ΔTm techniques) | Diff. Absorption Spectra -Δεmax (nm) (DNA) | solubility in distilled water ([3]; 4° C.) [mg/mL] | solubility in distilled water ([3]; 20° C.) [mg/mL] | cytotoxicity to CEM cells (in words) ([1]; CCRF-CEM in log phase) | activity against human cancer cells (in words) ([1]; human cancer cells) | antitumor activity against P388 (in words) ([2]; CDF1 mice) | activity against mouse leukemia cells (mouse leukemia cells)
Cc1c2oc3c(C)ccc(C(=O)N[C@@H]4C(=O)N[C@H](C(C)C)C(=O)N5CCC[C@H]5C(=O)N(C)CC(=O)N(C)[C@@H](C(C)C)C(=O)O[C@@H]4C)c3nc-2c(C(=O)N[C@@H]2C(=O)N[C@H](C(C)C)C(=O)N3CCC[C@H]3C(=O)N(C)CC(=O)N(C)[C@@H](C(C)C)C(=O)O[C@@H]2C)c(N)c1=O [Compound 1a, Actinomycin D, reference compound] (I: T[dV]P[Sar][NMeV] / II: T[dV]P[Sar][NMeV]; ester I:1-I:C, II:1-II:C; linker I:N-II:N via Actinocin(9to1)) | 0.04 | 136 | 26 | 1/7 | 7.1 ± 0.15 | 40,000(390) | binds to DNA strongly by intercalation | 8,240(425) | 20.5 (≈ 16.3 mM) | 0.9 (≈ 0.717 mM) | – | – | – | –
Cc1c2oc3c(C)c(O)cc(C(=O)N[C@@H]4C(=O)N[C@H](C(C)C)C(=O)N5CCC[C@H]5C(=O)N(C)CC(=O)N(C)[C@@H](C(C)C)C(=O)O[C@@H]4C)c3nc-2c(C(=O)N[C@@H]2C(=O)N[C@H](C(C)C)C(=O)N3CCC[C@H]3C(=O)N(C)CC(=O)N(C)[C@@H](C(C)C)C(=O)O[C@@H]2C)c(N)c1=O [Compound 1b, 7-HYDROXY ACTINOMYCIN D] | – | – | – | – | 6.7 ± 0.15 | 31,000(485) | – | 9,380(550) | – | – | – | – | – | –
Cc1ccc(C(=O)N[C@@H]2C(=O)N[C@H](C(C)C)C(=O)N3CCC[C@H]3C(=O)N(C)CC(=O)N(C)[C@@H](C(C)C)C(=O)O[C@@H]2C)c2c1Oc1c(c(C(=O)N[C@@H]3C(=O)N[C@H](C(C)C)C(=O)N4CCC[C@H]4C(=O)N(C)CC(=O)N(C)[C@@H](C(C)C)C(=O)O[C@@H]3C)c3nc(-c4ccccc4)c(=O)oc3c1C)N2 [Compound 2b] | 0.44 | 309 | 45 | 2/7 | – | – | – | – | – | – | most cyctoxic | highest human antitumor effects | most active | active
Cc1nc2c(C(=O)N[C@@H]3C(=O)N[C@H](C(C)C)C(=O)N4CCC[C@H]4C(=O)N(C)CC(=O)N(C)[C@@H](C(C)C)C(=O)O[C@@H]3C)c3c(c(C)c2o1)Oc1c(C)ccc(C(=O)N[C@@H]2C(=O)N[C@H](C(C)C)C(=O)N4CCC[C@H]4C(=O)N(C)CC(=O)N(C)[C@@H](C(C)C)C(=O)O[C@@H]2C)c1N3 [Compound 3a] | 2.9 | 91 | 21 | 0/7 | 0.0 ± 0.30 | nil | – | nil | – | – | – | – | – | –
